Converted amounts (≈) assume the structure as drawn.
Tested on: P388
Experiment: Cytotoxicity against mouse P388 cells
Assay type: functional, cell-based

SMILES | IC50
COc1ccc(C[C@H]2C(=O)N[C@@H](C)C(=O)N(C)[C@H]3Cc4ccc(cc4)Oc4cc(ccc4OC)C[C@@H](C(=O)N[C@H](C)C(=O)N[C@@H](C)C(=O)N2C)N(C)C3)cc1 | 5 µg/mL (≈ 6.61 µM)
COc1ccc(C[C@H]2C(=O)N[C@@H](C)C(=O)N(C)[C@H]3Cc4ccc(cc4)Oc4cc(ccc4OC)C[C@@H](C(=O)N[C@H](C)C(=O)N[C@@H](C)C(=O)N2C)N(C)C3=O)cc1 | 0.0043 µg/mL (≈ 0.00558 µM)
